Test results: ChEMBL document CHEMBL1201862, “PubChem BioAssay data set” (2004)
Activity calls are given as the source filed them.

How the values were obtained:
Phospholipase D1 = Phospholipase D1 (Homo sapiens, UniProt Q13393); experiment: PLD1 purified enzyme concentration response. [Related pubchem assays (depositor defined):AID588854]; type: functional
Phospholipase D2 = Phospholipase D2 (Homo sapiens, UniProt O14939); experiment: PLD2 purified enzyme concentration response. [Related pubchem assays (depositor defined):AID588854]; type: functional
Phospholipase D2, sequence (O14939 whole entry): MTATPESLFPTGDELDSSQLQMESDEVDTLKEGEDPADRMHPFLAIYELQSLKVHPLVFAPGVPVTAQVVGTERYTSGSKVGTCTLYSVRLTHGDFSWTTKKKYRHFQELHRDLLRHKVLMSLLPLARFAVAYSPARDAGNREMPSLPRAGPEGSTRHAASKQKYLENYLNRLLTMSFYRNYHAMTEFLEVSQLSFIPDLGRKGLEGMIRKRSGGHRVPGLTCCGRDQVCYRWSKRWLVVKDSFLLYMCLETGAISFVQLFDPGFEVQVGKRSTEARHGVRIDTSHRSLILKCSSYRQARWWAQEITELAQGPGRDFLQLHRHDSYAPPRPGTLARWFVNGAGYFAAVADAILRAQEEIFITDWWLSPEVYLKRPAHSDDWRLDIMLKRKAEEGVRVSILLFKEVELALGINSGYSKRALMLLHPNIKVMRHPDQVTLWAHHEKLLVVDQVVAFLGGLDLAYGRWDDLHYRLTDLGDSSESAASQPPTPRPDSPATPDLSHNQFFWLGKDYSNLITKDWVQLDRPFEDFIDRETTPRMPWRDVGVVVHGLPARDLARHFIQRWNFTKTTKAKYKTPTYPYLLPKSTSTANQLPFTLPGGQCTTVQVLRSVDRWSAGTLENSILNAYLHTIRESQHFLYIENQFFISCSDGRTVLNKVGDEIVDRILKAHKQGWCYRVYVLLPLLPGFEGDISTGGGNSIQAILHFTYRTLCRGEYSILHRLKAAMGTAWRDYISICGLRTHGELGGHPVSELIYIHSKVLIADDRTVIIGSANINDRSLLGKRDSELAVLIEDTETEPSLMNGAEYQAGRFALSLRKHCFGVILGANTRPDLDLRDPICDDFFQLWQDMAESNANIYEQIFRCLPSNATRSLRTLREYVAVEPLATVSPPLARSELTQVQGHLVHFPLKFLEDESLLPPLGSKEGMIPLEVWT

[1] = target: Dual specificity tyrosine-phosphorylation-regulated kinase 1A (Rattus norvegicus, UniProt Q63470); type: biochemical, Homo sapiens
[2] = test system: Streptococcus sp. 'group A'; experiment: growth inhibition of control SK(-) GAS strain, dose response, counter-screen for streptokinase expression inhibitor project, luminescence, kanamycin, BacTiterGlo, confirmation (AID 1900); type: functional, organism-based
Streptokinase A = target: T1, Streptokinase A (Streptococcus pyogenes serotype M1, UniProt P10520); experiment: S. pyogenes streptokinase expression inhibitors, potency, dose response, plasminogen activation absorbance, OD405 (AID 1914); type: functional, Streptococcus pyogenes M1 GAS;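 note: secreted streptokinase activity via plasminogen activation per viability signal from cell pellet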
T1 sequence (P10520 whole entry): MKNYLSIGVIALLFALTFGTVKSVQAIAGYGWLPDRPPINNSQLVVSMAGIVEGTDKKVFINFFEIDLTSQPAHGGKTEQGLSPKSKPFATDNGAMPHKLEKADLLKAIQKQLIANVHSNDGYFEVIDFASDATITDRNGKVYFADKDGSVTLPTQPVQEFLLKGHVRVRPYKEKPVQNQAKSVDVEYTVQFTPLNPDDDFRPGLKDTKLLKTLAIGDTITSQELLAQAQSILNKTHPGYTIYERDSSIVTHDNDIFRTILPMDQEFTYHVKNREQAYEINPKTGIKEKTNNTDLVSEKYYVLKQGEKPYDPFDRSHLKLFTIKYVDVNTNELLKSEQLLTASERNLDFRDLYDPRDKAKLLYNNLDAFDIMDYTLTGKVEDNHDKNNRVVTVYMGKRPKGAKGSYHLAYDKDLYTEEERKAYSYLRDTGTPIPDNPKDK

Streptococcus = experiment: Group A Streptococcus viability loss, dose response, counter-screen for streptokinase expression inhibitor project, luminescence, BacTiterGlo (AID 1915); type: functional, organism-based;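 note: potency for reduction of bacterial viability or growth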
CHO-K1 = experiment: (§1) Counterscreen for antagonists of the orexin 1 receptor (OX1R; HCRTR1): Homogeneous time resolved fluorescence (HTRF)-based cell-based dose response assay to identify antagonists of the parental CHO-K1 cell line. [Related pubchem assays (depositor defined):AID434989, AID435008, AID463079, AID485270, AID492963, AID492964, AID492965, AID493232, AID504699, AID504701]; type: functional; settings: Cricetulus griseus
[3] = Luminescence Cell-Based Dose Retest to Confirm Inhibitors of Cancer Stem Cells. [Related pubchem assays (depositor defined):AID2717, AID2721]; type: functional; settings: Homo sapiens
[4] = as §1, with “Fluorescence-based” for “Homogeneous time resolved fluorescence (HTRF)-based”, “cell-based high throughput” for “cell-based”, “CHO” for “CHO-K1”; type: functional
[5] = target: T2, Orexin/Hypocretin receptor type 1 (Homo sapiens, UniProt O43613); experiment: Homogeneous Time Resolved Fluorescence (HTRF)-based cell-based high throughput dose response assay for antagonists of the orexin 1 receptor (OX1R; HCRTR1). [Related pubchem assays (depositor defined):AID434989, AID435008, AID463079, AID485270, AID492963, AID492964, AID492965, AID493232, AID504717, AID504718]; type: functional
T2 sequence (O43613 whole entry): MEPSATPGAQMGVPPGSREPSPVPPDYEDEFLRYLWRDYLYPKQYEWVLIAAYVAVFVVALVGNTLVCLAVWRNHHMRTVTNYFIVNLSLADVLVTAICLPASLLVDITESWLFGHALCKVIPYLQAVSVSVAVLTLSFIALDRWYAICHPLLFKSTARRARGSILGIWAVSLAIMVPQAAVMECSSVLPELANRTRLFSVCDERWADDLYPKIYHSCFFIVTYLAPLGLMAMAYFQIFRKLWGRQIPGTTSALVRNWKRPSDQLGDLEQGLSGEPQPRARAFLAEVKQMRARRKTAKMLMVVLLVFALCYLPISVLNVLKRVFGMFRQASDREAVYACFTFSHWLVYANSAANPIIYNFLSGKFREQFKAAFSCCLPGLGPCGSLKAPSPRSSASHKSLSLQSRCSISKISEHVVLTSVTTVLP

[6] = cytotoxicity in HMLE control line with eGFP shRNA, dose response, counter-screen for HMLE_sh_ECad selective toxicity project, cell-based, HMLE_sh_eGFP, luminescence (AID 463074); type: functional, Homo sapiens;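 note: HMLE human mammary epithelial cells expressing control shRNA against eGFP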
[7] = target: T2, Orexin/Hypocretin receptor type 1; experiment: Fluorescence-based cell-based high throughput dose response assay for antagonists of the orexin 1 receptor (OX1R; HCRTR1). [Related pubchem assays (depositor defined):AID434989, AID435008, AID463079, AID485270, AID492963, AID492964, AID492965, AID493232, AID504717, AID504718]; type: functional
Orexin receptor type 2 [8] = target: T3, Orexin receptor type 2 (Homo sapiens, UniProt O43614); experiment: Counterscreen assay for antagonists of the orexin 1 receptor (OX1R; HCRTR1): Fluorescence-based cell-based dose response assay for antagonists of the orexin 2 receptor (OX2R; HCRTR2), run by assay provider.; type: functional
T3 sequence (O43614 whole entry): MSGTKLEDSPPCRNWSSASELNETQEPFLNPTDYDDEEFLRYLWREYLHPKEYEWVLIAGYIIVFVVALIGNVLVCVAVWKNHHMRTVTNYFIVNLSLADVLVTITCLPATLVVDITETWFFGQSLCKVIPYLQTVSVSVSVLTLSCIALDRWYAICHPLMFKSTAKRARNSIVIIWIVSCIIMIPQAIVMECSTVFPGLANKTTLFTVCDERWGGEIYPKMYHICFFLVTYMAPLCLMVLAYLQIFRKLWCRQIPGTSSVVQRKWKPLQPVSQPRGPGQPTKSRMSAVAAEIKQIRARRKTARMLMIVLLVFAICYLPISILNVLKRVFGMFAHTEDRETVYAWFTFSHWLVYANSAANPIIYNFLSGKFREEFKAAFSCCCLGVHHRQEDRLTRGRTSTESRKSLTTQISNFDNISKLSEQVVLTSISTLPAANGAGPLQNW

Orexin receptor type 2 [9] = target: T3, Orexin receptor type 2; experiment: Counterscreen assay for antagonists of the orexin 1 receptor (OX1R; HCRTR1): Homogeneous Time Resolved Fluorescence (HTRF)-based cell-based dose response assay for antagonists of the orexin 2 receptor (OX2R; HCRTR2), run by assay provider.; type: functional
HeLa = experiment: HeLa cell cytotoxicity, dose response, cytotoxicity control for MITF activator project, CellTiter-Glo luminescence, cherry-pick samples (AID 540259); type: functional, cell-based; settings: Homo sapiens

Phospholipase D1, sequence (Q13393 whole entry): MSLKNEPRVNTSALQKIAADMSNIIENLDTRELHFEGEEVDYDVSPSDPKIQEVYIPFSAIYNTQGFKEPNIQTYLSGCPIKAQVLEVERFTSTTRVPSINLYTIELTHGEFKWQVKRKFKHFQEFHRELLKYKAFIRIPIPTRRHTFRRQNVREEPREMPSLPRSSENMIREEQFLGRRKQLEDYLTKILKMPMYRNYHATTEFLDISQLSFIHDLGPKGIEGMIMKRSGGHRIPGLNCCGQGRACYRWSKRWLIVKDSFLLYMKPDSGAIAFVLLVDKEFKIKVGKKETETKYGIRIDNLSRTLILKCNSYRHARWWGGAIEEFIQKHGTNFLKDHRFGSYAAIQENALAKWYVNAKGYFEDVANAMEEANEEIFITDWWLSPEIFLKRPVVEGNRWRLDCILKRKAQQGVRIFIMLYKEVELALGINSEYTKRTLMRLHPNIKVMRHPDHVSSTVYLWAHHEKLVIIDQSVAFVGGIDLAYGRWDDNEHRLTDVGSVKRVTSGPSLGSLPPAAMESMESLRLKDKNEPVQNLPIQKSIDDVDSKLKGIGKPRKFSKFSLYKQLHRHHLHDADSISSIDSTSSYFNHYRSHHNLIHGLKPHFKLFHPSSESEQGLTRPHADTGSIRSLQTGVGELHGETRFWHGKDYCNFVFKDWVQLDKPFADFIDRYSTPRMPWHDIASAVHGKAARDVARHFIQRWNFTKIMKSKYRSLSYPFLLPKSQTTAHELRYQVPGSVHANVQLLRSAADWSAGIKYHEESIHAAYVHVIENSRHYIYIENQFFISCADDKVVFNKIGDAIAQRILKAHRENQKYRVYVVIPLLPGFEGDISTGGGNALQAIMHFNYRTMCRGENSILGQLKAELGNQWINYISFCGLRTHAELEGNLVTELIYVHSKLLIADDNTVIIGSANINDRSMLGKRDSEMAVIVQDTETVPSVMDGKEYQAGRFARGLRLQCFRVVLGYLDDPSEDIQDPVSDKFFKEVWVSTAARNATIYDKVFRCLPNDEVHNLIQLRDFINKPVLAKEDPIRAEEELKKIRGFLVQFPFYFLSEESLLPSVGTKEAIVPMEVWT

In the case of `O=C(NCCN1CCC2(CC1)C(=O)NCN2c1ccc(Br)cc1)c1cnc2ccccc2c1`, the IC50 (Phospholipase D1) is reported as 3.04 µM (active) and the IC50 (Phospholipase D2) is reported as 130 nM (active).

With `COc1ccc(C=C2SC(=S)NC2=O)cc1` the AC50 [1] was 104 nM (active).

With `O=c1c2ccccc2oc2cc(-c3ccc4[nH]ccc4c3)ccc12` the EC50 [2] was 8.57 µM (active), the EC50 (Streptokinase A) was > 150 µM (not active) and the EC50 (Streptococcus) was > 150 µM (not active). The IC50 (CHO-K1) was > 66.3 µM (inactive), the AC50 [3] was 255 nM (active) and the IC50 [4] was 48.8 µM (inactive). The IC50 [5] was 2.71 µM (active), the AC50 [6] was 290 nM (inconclusive) and the IC50 [7] was 6.96 µM (active). The IC50 (Orexin receptor type 2 [8]) was 40 µM (inactive) and the IC50 (Orexin receptor type 2 [9]) was > 50 µM (inactive).

For `Cc1ccc(NC(=O)C(=O)NCc2ccccn2)cc1`, the AC50 (HeLa) was > 350 µM (inactive).
